≈ marks a conversion by molar mass, not a printed value.
How the values were obtained:
[1] = solubility (general statement); format: physicochemical; details: with respect to pharmaceutical production
[2] = solubility in saline at 25 mg/ml, room temperature; format: physicochemical
[3] = system: CCRF-CEM; human T cell leukemia; experiment: MTT cytotoxicity, in vitro cell growth, CCRF-CEM; format: cell-based; details: 72 hr, read-out: IC50 (concentration showing 50% cytotoxity)
Procedure: (§1) Effect of the compounds on in vitro cell growth of various tumor cell lines:
(§2) The assay of cytotoxicity is dependent on the cellular reduction of MTT [3'-(4,5-dimethylthiazol-2-yl)-2,5-diphenyltetrazolium bromide] by the mitochondrial dehydrogenase of viable cells to a blue formazan product which can be measured spectrophotometrically. Cell suspension, 100 μl, containing 10^4 tumor cells with or without test sample was incubated for 72 hr in 5% CO2 -95% air at 37° C. in 96 well microculture plates (Falcol 3072). The 10 μl of MTT (5 mg/ml) in saline was added to each culture well and incubated for 4 hr at 37° C. The formazan crystals were solubilized by the addition of 100 μl of 10% SDS/0.01N HCl to each well, and incubated for 24 hr at 37° C. The plates were then read at 570 nm on the plate reader. The percentage of cytotoxicity was calculated from the formula: [formula]
(§3) 2 '-Deoxy-2'-methylidene-5-fluorocytidine was dissolved in distilled water, and diluted in RPM1 1640 medium. Tumor cell lines were maintained in RPM1 1640 medium (Nissui Seiyaku Co., Ltd., Tokyo, Japan).
(§4) IC50 values gave the concentrations showing the 50% cytotoxity.

[4] = system: U937; human histiocytic leukemia; experiment: MTT cytotoxicity, in vitro cell growth, U937; format: cell-based; details: U-937, 72 hr, read-out: IC50 (concentration showing 50% cytotoxity)
Procedure: as §1, §2, §3, §4

L1210/c; mouse leukemia = experiment: MTT cytotoxicity, in vitro cell growth, L1210/c; format: cell-based; details: 72 hr, read-out: IC50 (concentration showing 50% cytotoxity)
Procedure: as §1, §2, §3, §4

B16; mouse melanoma = experiment: MTT cytotoxicity, in vitro cell growth, B16; format: cell-based; details: 72 hr, read-out: IC50 (concentration showing 50% cytotoxity)
Procedure: as §1, §2, §3, §4

[5] = system: PC13; human lung large cell carcinoma; experiment: MTT cytotoxicity, in vitro cell growth, PC13; format: cell-based; details: PC-13, 72 hr, read-out: IC50 (concentration showing 50% cytotoxity)
Procedure: as §1, §2, §3, §4

[6] = system: MOLT4; human T cell leukemia; experiment: MTT cytotoxicity, in vitro cell growth, MOLT4; format: cell-based; details: MOLT-4, 72 hr, read-out: IC50 (concentration showing 50% cytotoxity)
Procedure: as §1, §2, §3, §4

[7] = system: HL60; human promyelocytic leukemia; experiment: MTT cytotoxicity, in vitro cell growth, HL60; format: cell-based; details: HL-60, 72 hr, read-out: IC50 (concentration showing 50% cytotoxity)
Procedure: as §1, §2, §3, §4

Row | SMILES | solubility [1] | solubility in saline [2] | IC50 [3] [µg/mL] | IC50 [4] [µg/mL] | IC50 (L1210/c; mouse leukemia) [µg/mL] | IC50 (B16; mouse melanoma) [µg/mL] | IC50 [5] [µg/mL] | IC50 [6] [µg/mL] | IC50 [7] [µg/mL]
1 | C=C1[C@H](n2ccc(N)nc2=O)O[C@H](CO)[C@H]1O [2'-deoxy-2'-methylidenecytidine, reference compound] | inferior in solubility | not soluble | – | – | – | – | – | – | –
2 | C=C1[C@H](n2cc(F)c(N)nc2=O)O[C@H](CO)[C@H]1O [Example 1, 2'-deoxy-2'-methylidene-5-fluorocytidine] | – | easily soluble | 0.14 (≈ 0.544 µM) | 0.44 (≈ 1.71 µM) | 0.33 (≈ 1.28 µM) | 6.9 (≈ 26.8 µM) | 1 (≈ 3.89 µM) | 0.036 (≈ 0.14 µM) | 0.04 (≈ 0.156 µM)

Reference: patent US5401726A, “2'methylidenepyrimidine nucleoside compounds, their use and method for production thereof” (Yoshitomi Pharaceutical Industries, Ltd., priority 1988, dated 1995)
